Patent US6943183B2 (Pfizer Inc, priority 2000, dated 2005)
Structures can show the parent of a compound that is named as a salt.

Target: T1, SF9 affinity purified rat FPT (Rattus norvegicus, UniProt Q02293+Q04631)
T1 construct: made in house; host or cells: Sf9 insect cells
Assay: PFT (FPT) inhibitory activity assay, radiolabeled farnesyl pyrophosphate and biotinyl peptide, streptavidin beads
Type: biochemical
Conditions: HEPES buffer pH 7.4, 30° C., 30 minutes; read-out: FTase IC50
Experimental: The PFT or FPT inhibitory activity of compounds of the present invention were assayed in HEPES buffer (pH 7.4) containing 5 mM potassium phosphate and 20 μM ZnCl2. The solution also contained 5 mM DTT (dithiothreitol), 5 mM MgCl2, and 0.1% PEG 8000. Assays were performed in 96 well plates (Wallec) and employed solutions composed of varying concentrations of a compound of the present invention in 10% DMSO (dimethylsulfoxide). […] After incubation at 30° C. for 30 minutes, the reaction was terminated by diluting the reaction 2.5-fold with a stop buffer containing 1.5 M magnesium acetate, 0.2 M H3PO4, 0.5% BSA (bovine serum albumin), and strepavidin beads (Amersham) at a concentration of 1.3 mg/mL. […] The assay was also carried out without 5 mM potassium phosphate.

Compound | IC50 [nM]
6-((1S)-2-Indazolyl-1-phenylethoxy)-5-amino-2,3,4-trihydronaphthalen-1-one [Compound 37] | 13
CCC(C)OCc1c(O[C@H](Cn2ccnc2)c2ccccc2)ccc2c1CCCC2=O (mixture of isomers) [Compound 19d, (±)5-sec-Butoxymethyl-6-((S)-2-imidazol-1-yl-1-phenyl-ethoxy)-3,4-dihydro-2H-naphthalen-1-one] | 1.9
O=C1CCC(c2ccccc2)c2cc(OC(Cn3ccnc3)c3ccccc3)ccc21 (racemic) [Compound 48, (±)-6-(2-imidazolyl-O-phenylethoxy)-4-phenyl-2,3,4-trihydronaphthalen-1-one] | 35
C=CCc1c(OC(Cn2ccnc2)c2ccccc2)ccc2c1CCCC2=O (racemic) [Compound 49, (±)-6-(2-imidazolyl-1-phenylethoxy)-5-prop-2-ethyl-2,3,4-trihydronaphthalen-1-one] | 17
C=C(C)Cc1c(OC(Cn2ccnc2)c2ccccc2)ccc2c1CCCC2=O (racemic) [Compound 52, (±)-6-(2-Imidazolyl-1-phenylethoxy)-5-(2-methylprop-2-enyl)-2,3,4-trihydronaphthalen-1-one] | 8
C=CCc1c(OC(Cn2ccnc2)c2ccccc2Cl)ccc2c1CCCC2=O (racemic) [Compound 59, (±)-6-[1-(2-Chlorophenyl)-2-imidazolylethoxy]-5-prop-2-enyl-2,3,4-trihydronaphthalen-1-one] | 12
C=CCc1c(OC(Cn2ccnc2)c2c(Cl)cccc2Cl)ccc2c1CCCC2=O (racemic) [Compound 60, (±)-6-[0-(2,6-Dichlorophenyl)-2-imidazolylethoxy]-5-prop-2-enyl-2,3,4-trihydronaphthalen-1-one, Trifluoroacetic Acid] | 29
C=CCc1c(OC(Cn2ccnc2)c2cccs2)ccc2c1CCCC2=O (racemic) [Compound 61, (±)-6-(2-imidazolyl-1-(2-thienyl)ethoxy)-5-prop-2-ethyl-2,3,4-trihydronaphthalen-1-one] | 7
O=C1CCCc2c1ccc(O[C@H](Cn1ccnc1)c1ccccc1)c2C[S+]([O-])c1ccccn1 (mixture of isomers) [Compound 142, 6-((S)-2-Imidazol-1-yl-1-phenyl-ethoxy)-5-(pyridine-2-sulfinylmethyl)-3,4-dihydro-2H-napthalen-1-one] | 0.55
CC(C)[S+]([O-])Cc1c(O[C@H](Cn2ccnc2)c2ccccc2)ccc2c1CCCC2=O (mixture of isomers) [Compound 143, 6-((S)-2-Imidazol-1-yl-1-phenyl-ethoxy)-5-(propane-2-sulfinylmethyl)-3,4-dihydro-2H-napthalen-1-one] | 1.4
O=C1CCCc2c1ccc(O[C@H](Cn1ccnc1)c1ccccc1)c2CSc1ccccc1 [Compound 1, 6-((1S)-2-Imidazolyl-1-phenylethoxy)-5-(phenylthiomethyl)-2,3,4-trihydronaphthalen-1-one] | 0.3
O=C1CCCc2c1ccc(O[C@H](Cn1ccnc1)c1ccccc1)c2C[S+]([O-])c1ccccc1 (stereo partly shown) [Compound 2] | 3
O=C1CCCc2c1ccc(O[C@H](Cn1ccnc1)c1ccccc1)c2CS(=O)(=O)c1ccccc1 [Compound 3] | 0.3
COC(=O)c1ccccc1SCc1c(O[C@H](Cn2ccnc2)c2ccccc2)ccc2c1CCCC2=O [Compound 4, Methyl 2-{[2-((1S)-2-imidazolyl-1-phenylethoxy)-5-oxo-6,7,8-trihydronaphthyl]methylthio}benzoate] | 0.3
O=C(O)c1ccccc1SCc1c(O[C@H](Cn2ccnc2)c2ccccc2)ccc2c1CCCC2=O [Compound 5, 2-{[2-((1S)-2-Imidazolyl-1-phenylethoxy)-5-oxo-6,7,8-trihydronaphenyl]methylthio}benzoic acid] | 2
CC(C)SCc1c(O[C@H](Cn2ccnc2)c2ccccc2)ccc2c1CCCC2=O [Compound 6, 6-((S)-2-Imidazol-1-yl-1-phenyl-ethoxy)-5-isopropylsulfanylmethyl-2,3,4-trihydronaphthalen-1-one] | 0.4

Compound | IC50 [nM]
CC(C)S(=O)(=O)Cc1c(O[C@H](Cn2ccnc2)c2ccccc2)ccc2c1CCCC2=O [Compound 7] | 6
O=C1CCCc2c1ccc(O[C@H](Cn1ccnc1)c1ccccc1)c2CSc1ccncc1 [Compound 8] | 3
O=C1CCCc2c1ccc(O[C@H](Cn1ccnc1)c1ccccc1)c2CSc1ccccn1 [Compound 9, 6-((1S)-2-Imidazolyl-1-phenylethoxy)-5-(2-pyridylthiomethyl)-2,3,4-trihydronaphthalen-1-one] | 4
O=C1CCCc2c1ccc(O[C@H](Cn1ccnc1)c1ccccc1)c2CS(=O)(=O)c1ccccn1 [Compound 10, 6-(1S)-2-Imidazolyl-1-phenylethoxy)-5-[(2-pyridylsulfonyl)methyl]-2,3,4-trihydronaphthalen-1-one hydrochloride] | 0.3
O=C1CCCc2c1ccc(O[C@H](Cn1ccnc1)c1ccccc1)c2CNc1ccccc1 [Compound 11] | 0.2
CN(Cc1c(O[C@H](Cn2ccnc2)c2ccccc2)ccc2c1CCCC2=O)c1ccccc1 [Compound 12] | 4
COC(=O)c1ccc(N(C)Cc2c(O[C@H](Cn3ccnc3)c3ccccc3)ccc3c2CCCC3=O)cc1 [Compound 13, Methyl 4-({[2-((1S)-2-imidazolyl-1-phenylethoxy)-5-oxo(6,7,8-trihydronaphthyl)]methyl}methylamino)benzoate] | 2
CC(C)OCc1c(O[C@H](Cn2ccnc2)c2ccccc2)ccc2c1CCCC2=O [Compound 15, hydrochloride] | 0.2
O=C1CCCc2c1ccc(O[C@H](Cn1ccnc1)c1ccccc1)c2COCc1ccccc1 [Compound 16, 6-((1S)-2-Imidazolyl-1-phenylethoxy)-5-[(phenylmethoxy)methyl]-2,3,4-trihydronaphthalen-1-one] | 0.8
O=C1CCCc2c1ccc(O[C@H](Cn1ccnc1)c1ccccc1)c2COC1CCCC1 [Compound 17] | 0.3
C=CCOCc1c(O[C@H](Cn2ccnc2)c2ccccc2)ccc2c1CCCC2=O [Compound 18, 6-((1S)-2-imidazolyl-1-phenylethoxy)-5-(prop-2-enyloxymethyl)-2,3,4-trihydronaphthalen-1-one] | 8
CC(C)COCc1c(O[C@H](Cn2ccnc2)c2ccccc2)ccc2c1CCCC2=O [Compound 19a, 6-((S)-2-Imidazol-1-yl-1-phenyl-ethoxy)-5-isobutoxymethyl-1-3,4-dihydro-2H-naphthalen-1-one] | 1.9
O=C1CCCc2c1ccc(O[C@H](Cn1ccnc1)c1ccccc1)c2CCc1ccccc1 [Compound 20] | 0.4
O=C1CCCc2c1ccc(O[C@H](Cn1ccnc1)c1ccccc1)c2-c1ccc2c(c1)OCO2 [Compound 21, 5-(2H-Benzo[d]-1,3-dioxolan-5-yl)-6-((1S)-2-imidazolyl-1-phenylethoxy)-2,3,4-trihydronaphthalen-1-one] | 8
O=C1CCCc2c1ccc(O[C@H](Cn1ccnc1)c1ccccc1)c2-c1cccc(Cl)c1 [Compound 22, 6-((1S)-2-Imidazolyl-1-phenylethoxy)-5-(3-chlorophenyl)-2,3,4-trihydronaphthalen-1-one] | 26
O=C1CCCc2c1ccc(O[C@H](Cn1ccnc1)c1ccccc1)c2-c1ccc2ccccc2c1 [Compound 23, 6-((1S)-2-Imidazolyl-1-phenylethoxy)-5-(2-naphthyl)-2,3,4-trihydronaphthalen-1-one] | 11

Now from value to compound:

IC50 [nM] | Compound
4 | Cc1nccn1CC(Oc1ccc2c(c1CCc1ccccc1)CCCC2=O)c1ccccc1 (racemic) [Compound 63o, (±)-6-[2-(2-Methyl-imidazol-yl)-1-phenyl-ethoxy]-5-phenethyl-3,4-dihydro-2H-naphthalen-1-one]
0.4 | O=C1CCCc2c1ccc(O[C@H](Cn1ccnc1)c1cccnc1)c2CCc1ccccc1 (single isomer, unassigned) [Compound 63a]
30.5 | O=C1CCCc2c1ccc(O[C@H](Cn1ccnc1)c1ccccc1)c2CSc1cccc2ccccc12 [Compound 10a, 6-((S)-2-Imidazol-1-yl-1-phenyl-ethoxy)-5-(naphthalen-1-ylsulfanylmethyl)-3,4-dihydro-2H-naphthalen-1-one]
2.5 | COC(=O)CSCc1c(O[C@H](Cn2ccnc2)c2ccccc2)ccc2c1CCCC2=O [Compound 10b, [2-(2-Imidazol-1-yl-1(S)-phenyl-ethoxy)-5-oxo-5,6,7,8-tetrahydro-naphthalen-1-ylmethylsulfanyl]-acetic acid methyl ester]
5.3 | O=C1CCCc2c1ccc(O[C@H](Cn1ccnc1)c1ccccc1)c2CSCc1ccc(Cl)c(Cl)c1 [Compound 10c, 5-(3,4-Dichloro-benzylsulfanylmethyl)-6-((1S)-2-imidazol-1-yl-1-phenyl-ethoxy)-3,4-dihydro-2H-naphthalen-1-one]
5.5 | O=C1CCCc2c1ccc(O[C@H](Cn1ccnc1CO)c1ccccc1)c2CS(=O)(=O)c1ccccc1 [Compound 10d, (S)-6{2-[2-(Hydroxymethyl)-1H-imidazol-1-yl]-1-phenylethoxy}-5-[(phenylsulfonyl)methyl]-3,4-dihydro-1(2H)-naphthalenone]
3.6 | CCCOCc1c(O[C@H](Cn2ccnc2)c2ccccc2)ccc2c1CCCC2=O [Compound 19b, 6-((S)-2-Imidazol-1-yl-1-phenyl-ethoxy)-5-propoxymethyl-3,4-dihydro-2H-naphthalen-1-one]
1.4 | CCC(CC)OCc1c(O[C@H](Cn2ccnc2)c2ccccc2)ccc2c1CCCC2=O [Compound 19c, 5-(1-Ethyl-propoxymethyl)-6-((S)-2-imidazol-1-yl-1-phenyl-ethoxy)-3,4-dihydro-2H-naphthalen-1-one]
